Values joined by “and” are separate entries in the source; they are usually repeats but may differ in a detail not shown here. Identical values can stand only once.
Experiments:
[1] = Cross-over PK, IV and PO, cynomolgus monkeys; type: in vivo, male cynomolgus monkey
Method: A cross-over PK (pharmacokinetic) analysis was conducted in cynomolgus monkey. Two fasted male monkeys in each dose group received a single 1.0 mg/kg dose of CFMQ (HGT3711) by either IV (intravenous) or PO (oral) administration, with a 7-day washout period between each dose. The dose concentration was 1.0 mg/mL with a dose volume of 1.0 mL/kg. Blood samples were collected via the femoral vein at 0.083 (5 min), 0.25 (15 min), 0.5 (30 min), 1, 1.5, 2, 3, 4, 6, 8, 18 and 24 hours post-dose. Plasma concentrations of CFMQ (HGT3711) were determined by LC-MS/MS and concentrations below the limit of quantitation (2.5 ng/mL) were assigned a value of zero for pharmacokinetic analysis. Following oral administration of CFMQ (1 mg/kg), the concentration of CFMQ in plasma was below the limit of quantitation (BLQ=<2.5 ng/ml) at each sampling time point, preventing assessment of pharmacokinetic properties of CFMQ after oral administration in monkeys in this study. Table 11 summarizes the average PK properties for IV and PO dosed groups.

plasma extravasation = assay: Plasma extravasation (Evans blue in bladder), oral gavage, female WT mice; type: in vivo
Method: The efficacy of CFMQ (HGT3711) following orally administration was studied in female WT mice. Eight mice per group received either vehicle or CFMQ (HGT3711) at 1.0, 3.0, 10, or 30 mg/kg by oral gavage. An additional dose group received Firazyr® (icatibant-0.4 mg/kg) as a subcutaneous (SC) injection. Similar to the previous studies, inhibition of EB content in the dried bladder (μg EB per milligram of tissue weight) was utilized as measurement of efficacy.

[2] = Plasma kinetics, intravenous, CD-1 mice; type: in vivo, female CD-1 mice
Method: CFMQ (HGT3711) was administered to fasted female CD-1 mice by a single intravenous injection at 1.0 mg/kg, formulated in 100% PEG200. Blood samples were taken via cardiac puncture prior to administration and at 0.083 (5 min), 0.25 (15 min), 0.50 (30 min), 1, 2, 4, and 8 hours post dose. Plasma concentrations of CFMQ (HGT3711) were determined by LC-MS/MS and concentrations below the limit of quantitation (BLOQ=<1 ng/ml) were assigned a value of zero for pharmacokinetic analysis. Nominal dosing concentrations were used in all calculations.

[3] = male, cynomolgus monkey, plasma, IV (1 mg/kg), Mean
[4] = female, CD-1, mouse, plasma, IV 1 mg/kg
[5] = female, CD-1, mouse, plasma, IV 1 mg/kg, extrapolated to t = 0

Vz as fold of the total body water (0.69 L/kg) ([1]; IV 1 mg/kg): 4.32 fold
systemic clearance as % of monkey hepatic blood flow (2.62 L/hr/kg) ([1]; IV 1 mg/kg): 57.63%
ACU(0-∞) ([1]; IV (1 mg/kg), Mean): 693.99 μg/L*hr
CLz ([1]; IV (1 mg/kg), Mean, 1 mg/kg): 25.2 ± 6.83 mL/min/kg and 25.2 mL/min/kg
t1/2z ([1]; IV (1 mg/kg), Mean, 1 mg/kg): 84 ± 14.4 min and 84 min
AUC(0-t) [1, 3]: 679 ng·h/mL
Cmax [1, 3]: 410 ng/mL
Tmax [1, 3]: 13.8 min
MRT inf ([1]; male, cynomolgus monkey, plasma, IV (1 mg/kg), Mean, read-out: MRT(0-∞)): 106 min
Cmax ([1]; male, cynomolgus, cynomolgus monkey, plasma, IV (1 mg/kg), Mean): 410 ± 107 ng/mL
Vd ([1]; male, cynomolgus, cynomolgus monkey, plasma, IV (1 mg/kg), Mean, read-out: Vz): 2.98 ± 0.55 L/kg
concentration of CFMQ in plasma ([1]; oral 1 mg/kg, at each sampling time point (below limit of quantitation)): < 2.5 ng/mL
oral bioavailability ([1]; oral 1 mg/kg, monkey): no bioavailability
plasma value (plasma extravasation; oral 10.0 mg/kg): 267 nM
plasma concentration ([2]; IV 1 mg/kg, by 4 hours post-dose, BLOQ=<1 ng/ml): below the BLOQ
AUC(0-inf) [2, 4]: 70.9 ng·h/mL
clearance [2, 4]: 235 mL/min/kg
half-life [2, 4]: 33.6 min
concentration at 0.083 hr ([2]; female, CD-1, mouse, plasma, IV 1 mg/kg, 0.083 hr, read-out: Average Concentration of HGT3711): 162 ng/mL
concentration at 0.25 hr ([2]; female, CD-1, mouse, plasma, IV 1 mg/kg, 0.25 hr, read-out: Average Concentration of HGT3711): 92.9 ng/mL
concentration at 0.5 hr ([2]; female, CD-1, mouse, plasma, IV 1 mg/kg, 0.50 hr, read-out: Average Concentration of HGT3711): 22.4 ng/mL
concentration at 1 hr ([2]; female, CD-1, mouse, plasma, IV 1 mg/kg, 1.0 hr, read-out: Average Concentration of HGT3711): 12.6 ng/mL
concentration at 2 hr ([2]; female, CD-1, mouse, plasma, IV 1 mg/kg, 2.0 hr, read-out: Average Concentration of HGT3711): 3.48 ng/mL
C0 [2, 5]: 214 ng/mL
Tmax [2, 5]: 0 h
AUC(0-t) ([2]; female, CD-1, mouse, plasma, IV 1 mg/kg, read-out: AUClast ± SE): 68.1 ng·h/mL
Vd ([2]; female, CD-1, mouse, plasma, IV 1 mg/kg, read-out: Vss): 6.3 L/kg
SMILES: Cc1cc(Cl)c(COc2cccc3c(-n4cc(F)cn4)cc(C)nc23)c(Cn2cccc(C#N)c2=O)n1 [CFMQ, 1-((4-Chloro-3-(((4-(4-fluoro-1H-pyrazol-1-yl)-2-methylquinolin-8-yl)oxy)methyl)-6-methylpyridin-2-yl)methyl)-2-oxo-1,2-dihydropyridine-3-carbonitrile]
inhibition of EB accumulation in the bladder (plasma extravasation; oral 10 mg/kg, female WT mice): ~100%
efficacy compared with 0.4 mg/kg SC Firazyr (plasma extravasation; oral 10.0 mg/kg, female WT mice): equally effective
inhibition of EB accumulation in the bladder (plasma extravasation; oral 30 mg/kg, female WT mice): ~100%
minimally-effective dose (MED) (plasma extravasation; oral gavage, female WT mice): 3.0 mg/kg
adverse reactions ([2]; IV 1.0 mg/kg, mice): No adverse reactions were observed
